IC50 data for three compounds are collected here from patent US20240425518A1, “N-MACROCYCLIC AMIDE COMPOUNDS, PREPARATION METHODS THEREOF AND APPLICATIONS THEREOF AS MEDICAMENTS” (Chengdu FANXI Biopharma Co., Ltd., priority 2023, published 2024).

SMILES strings stand for the structures.

One assay concerns MM1S Human myeloma cells. Put plainly: MTT cell proliferation inhibition, MM1S. Format: cell-based. The note with it: MM1.S, 72 hours. The protocol: (§1) Human cancer cells were purchased from ATCC. The cells were cultured in a culture medium according to the work instruction of ATCC. A dose-response curve was drawn by XL-fitting to determine an IC50 value of a compound. […] Cell proliferation inhibition could be detected by a MTT method (3-(4,5-Dimethylthiazol-2-yl)-2,5-diphenyltetrazolium bromide, and MTT; and 3-(4,5-dimethyl thiazole-2)-2,5-diphenyltertazolium bromide, and thiazolyl blue).
(§2) The cells were cultured in a culture dish first, and the cells in a logarithmic growth phase were inoculated into a 96-well plate (3,000 to 5,000 adherent cells/well, 10,000 to 30,000 suspended cells/well) according to a specific number, with 100 microliters per well, and then cultured in an incubator of 5% CO2 and 37° C. […] An absorbance of a general control group should be a normal value between 0.8 and 1.2. After obtaining absorbance data, a change curve of an inhibition rate was fitted by GraphPad Prism6.03 software and an IC50 value was calculated.
(§3) Calculation of drug inhibition rate: relative cell proliferation inhibition rate=[(control group A570−experimental group A570)/control group […], wherein A570 represented the absorbance at 570 nm.

Assay [1] has as its system HT1080 Human fibrosarcoma cells. Nature of the assay: MTT cell proliferation inhibition, HT1080. The format is cell-based. The note with it: HT-1080, HT1080, 72 hours. The protocol:
as §1, §2, §3

Assay [2] deals with MV4-11 Human acute myelogenous leukemia. Put plainly: MTT cell proliferation inhibition, MV4-11. The note with it: MV4-11, 72 hours. The format is cell-based. The method, then:
as §1, §2, §3

Assay [3] deals with TT Human medullary thyroid cancer. Put plainly: MTT cell proliferation inhibition, TT. Format: cell-based. The note with it: 72 hours. The method, then: as §1, §2, §3
In the next assay the test system is U266 Human myeloma cells. Put plainly: MTT cell proliferation inhibition, U266. The format is cell-based. The following applies: U-266, U266, 72 hours. The method, then: as §1, §2, §3
Assay [4] relates to Karpas-299 Human anaplastic large cell lymphoma cells. Nature of the assay: MTT cell proliferation inhibition, Karpas-299. Format: cell-based. The note with it: Karpas-299, 72 hours. The protocol:
as §1, §2, §3

In a further assay the target is T1, Ret (V804M) (h) (Homo sapiens, UniProt P07949, V804M).
T1 construct: purchased Eurofins
T1 sequence (P07949 29-1114 V804M): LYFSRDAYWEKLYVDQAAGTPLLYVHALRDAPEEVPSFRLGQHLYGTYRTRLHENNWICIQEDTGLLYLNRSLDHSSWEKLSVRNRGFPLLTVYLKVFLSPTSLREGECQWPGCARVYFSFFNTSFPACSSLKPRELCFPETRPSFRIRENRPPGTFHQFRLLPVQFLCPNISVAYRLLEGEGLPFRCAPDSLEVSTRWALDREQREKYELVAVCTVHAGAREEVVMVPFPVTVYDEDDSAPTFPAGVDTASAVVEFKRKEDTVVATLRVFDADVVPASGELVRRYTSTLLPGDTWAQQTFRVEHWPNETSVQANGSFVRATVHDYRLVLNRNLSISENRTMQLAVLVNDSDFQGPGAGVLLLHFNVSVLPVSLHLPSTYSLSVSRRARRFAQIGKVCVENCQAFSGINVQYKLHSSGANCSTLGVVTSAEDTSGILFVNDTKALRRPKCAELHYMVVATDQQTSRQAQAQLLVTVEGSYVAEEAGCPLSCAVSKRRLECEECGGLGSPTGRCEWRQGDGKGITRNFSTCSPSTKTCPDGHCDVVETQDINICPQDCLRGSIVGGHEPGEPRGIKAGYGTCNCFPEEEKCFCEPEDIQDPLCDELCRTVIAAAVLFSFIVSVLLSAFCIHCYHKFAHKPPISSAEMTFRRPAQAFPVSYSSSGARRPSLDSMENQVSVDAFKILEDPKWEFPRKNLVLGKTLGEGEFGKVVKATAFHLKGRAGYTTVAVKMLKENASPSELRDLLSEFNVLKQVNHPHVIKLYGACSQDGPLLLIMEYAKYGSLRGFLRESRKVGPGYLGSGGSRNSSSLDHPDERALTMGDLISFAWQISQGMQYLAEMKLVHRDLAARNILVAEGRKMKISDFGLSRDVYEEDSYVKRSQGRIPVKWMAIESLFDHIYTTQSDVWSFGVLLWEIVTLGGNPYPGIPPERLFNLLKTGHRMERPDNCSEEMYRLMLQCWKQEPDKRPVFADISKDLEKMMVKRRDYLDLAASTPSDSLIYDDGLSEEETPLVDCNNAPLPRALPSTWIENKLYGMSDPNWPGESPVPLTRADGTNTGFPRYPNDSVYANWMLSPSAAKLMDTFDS
Put plainly: Radioisotope labeling kinase assay (Eurofins), Ret (V804M). The format is biochemical. The method, then:
An activity to a human recombinant protein kinase of a series of compounds was determined by a radioisotope labeling method, which was provided by Eurofins Company. A compound to be detected was mixed with a corresponding protein kinase buffer (20 mM propyl sulfonate (MOPS, […].), 1 mM EDTA, 0.10 β-mercaptoethanol, 0.010 Brij-35, […], and 1 mg/mL BSA), the mixture was added into a reaction system (100 μM reaction substrate […], 8 mM MOPS with a pH value of 7.0, 10 mM MgAcetate, 0.2 mM EDTA, and a certain concentration of γ-^33P-ATP). After adding an MgATP composite solution, the reaction was started at room temperature for 40 minutes, and the reaction was terminated by adding 5 μl of […] solution. Then, 10 μl of reaction solution was dropwise added onto a filter and washed with 75 mM phosphoric acid solution for three times, 5 minutes each time, then washed with methanol once again, and dried and subjected to scintillation counting.

Usually IC50 stands for the concentration at which inhibition is half-maximal. Take `O=C(/C=C/CN1CCCC1)Nc1cc2cc(c1)Nc1nccc(n1)-c1cccc(c1)COC/C=C/COC2` [XVI-1]: the IC50 in the assay with MM1S Human myeloma cells was determined as 92 nM; in assay [1], 706 nM; in assay [2] it was 30 nM; in assay [3], 143 nM; in the assay on U266 Human myeloma cells, 614 nM; in assay [4], 133 nM.
For the compound `O=C(/C=C/CN1CCOCC1)Nc1cc2cc(c1)Nc1nccc(n1)-c1cccc(c1)COC/C=C/COC2` [XVI-3], the half-maximal inhibitory concentration (IC50) in the assay on MM1S Human myeloma cells was 379 nM; in assay [1], 1580 nM; in assay [2], 87 nM; in assay [3], 1470 nM; with U266 Human myeloma cells, 2700 nM; in assay [4] it was 1180 nM.
The compound `C1=C/COCc2cccc(c2)-c2ccnc(n2)Nc2cc(cc(OC/C=C/CN3CCCC3)c2)COC/1` [XVI-12] registered an IC50 at Ret (V804M) (h) of 122 nM.
